Measurements as given in US20180207172A1, “TREATMENT FOR VITILIGO” (GLAXO GROUP LIMITED, priority 2015, published 2018).

Test system: CXCL10 secretion induced by poly(I:C) in HaCaT cells
Assay: poly(I:C)-induced CXCL10 secretion assay in HaCaT cells (ELISA)
Type: cell-based, Human
Settings: poly(I:C) 20 μg/ml, 48 hours
Method: In another CXCL10 assay, immortalized keratinocytes (HaCaTs) cells (AddexBio #T0020001) were cultured in DMEM (Thermo Fisher #10566-016) supplemented with 10% FBS and 1% penicillin/streptomycin. 1×10^5 HaCaT cells were seeded per well of a 24-well culture dish in 400 μl culture medium. Once confluent, medium was aspirated and cells were pretreated with 200 μl of DMSO vehicle (0.1%) or 3-fold serial dilutions ([…]) of 7-(2-(methyloxy)-6-{[(4-methyl-2-pyridinyl)methyl]oxy}-phenyl)-2,3,4,5-tetrahydro-1H-3-benzazepine (Compound 1) for 30 minutes at 37° C. with 5% CO2. After pre-treatment, 200 μl of poly(I:C) at 40 μg/ml was added per well (without removal of pre-treatment medium), making the final treatment concentration 20 μg/ml. Additional compound and/or DMSO was included to maintain concentrations. All samples received 0.1% DMSO during both pre-treatment and treatment phases. Cells were returned to the incubator for 48 hours. Each condition had biological triplicates.
At 48 hours, supernatants were collected, centrifuged to pellet debris, and then re-collected. CXCL10 secreted into the supernatant was measured by the Human CXCL10/IP-10 Quantikine ELISA Kit (R&D Systems #DIP 100) according to the manufacturer's protocol. […]

## COc1cccc(OCc2cc(C)ccn2)c1-c1ccc2c(c1)CCNCC2 [Compound 1, 7-(2-(methyloxy)-6-{[(4-methyl-2-pyridinyl)methyl]oxy}-phenyl)-2,3,4,5-tetrahydro-1H-3-benzazepine]
30 min pre-treatment, supernatant ELISA, FIG. 1
  CXCL10 secretion induced by poly(I:C), percentage of maximum stimulation (vehicle = 100%): dose-dependent decrease
Highest concentration tested
  dose concentration at which maximal inhibition of CXCL10 secretion was observed: 10 µM
